Source: patent publication US20260201008A1, “SECRETIN-DERIVED GLP1R SELECTIVE AGONISTS” (GUBRA A/S, priority 2023, published 2026)
Like-named read-outs stand apart in the source and are kept apart here. Numbered stars: 1 amine (or outer) side, 2 acyl side, 3 side chain; on linkers, the order of the positions; unused ones are H or OH. Square brackets hold non-standard residues; d marks the D form. Side chains are listed from the residue outwards. Peptide text beside a SMILES is read from it. * marks the point of attachment. C20 diacid = O=C(O)CCCCCCCCCCCCCCCCCCC(=O)*; γGlu = O=C(O)[C@H](CCC(=O)[*:2])N[*:1]; AEEA = NCCOCCOCC(=O)O; Aib = CC(C)(N)C(=O)O

How the values were obtained:
[1] = Turbidity of crude library peptides (absorbance at 600 nm); type: physicochemical; conditions: Physical stability of peptides
Summary of the method: (§1)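 Values reflect mean ThT emission (ex 450, em 480 nm) over 72 h at 40° C, read every 10 min after 5 min shaking at 700 rpm, plus a single initial absorbance at 600 nm for turbidity. Peptides were at 267 μM, pH 4.0 acetate or pH 7.0 phosphate (50 mM), with 4 μM ThT.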

[2] = Fibril formation of crude library peptides (Thioflavin T); type: physicochemical; design: key: average ThT fluorescence emission at 480 nm (ex 450 nm), raw units; conditions: Physical stability of peptides
Summary of the method: as §1

GLP1R = GLP1R (Homo sapiens, UniProt P43220); assay: hGLP1R potency, cAMP accumulation in CHO-K1 cells stably overexpressing hGLP1R; type: cell-based; design: host or cells: CHO-K1; conditions: for Selectivity: SCTR EC50/GLP1R EC50 ratio; for EC50: cAMP accumulation, CHO-K1 cells overexpressing hGLP1R
Chain of GLP1R (P43220 24-463): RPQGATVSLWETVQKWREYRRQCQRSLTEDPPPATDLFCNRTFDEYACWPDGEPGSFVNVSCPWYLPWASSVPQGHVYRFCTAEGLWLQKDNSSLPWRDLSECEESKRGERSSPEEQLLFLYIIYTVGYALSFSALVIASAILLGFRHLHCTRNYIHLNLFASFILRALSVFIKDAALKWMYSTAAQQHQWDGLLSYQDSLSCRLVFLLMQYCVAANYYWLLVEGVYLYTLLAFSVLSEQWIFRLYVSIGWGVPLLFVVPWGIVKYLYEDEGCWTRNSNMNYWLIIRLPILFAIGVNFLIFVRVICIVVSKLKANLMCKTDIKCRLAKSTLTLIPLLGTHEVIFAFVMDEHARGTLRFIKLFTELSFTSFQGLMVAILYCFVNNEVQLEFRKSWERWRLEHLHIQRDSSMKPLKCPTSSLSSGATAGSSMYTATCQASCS
Summary of the method: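 Potency reflects cAMP accumulation measured by time-resolved fluorescence energy transfer after a 30 min room-temperature stimulation in IBMX-containing (0.5 mM) DPBS with casein. Purified peptides were tested in duplicate over eleven threefold dilutions, and EC50 was obtained from sigmoid concentration-response fitting.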

SCTR = SCTR (Homo sapiens, UniProt P47872); assay: hSCTR potency, cAMP accumulation in CHO-K1 cells stably overexpressing hSCTR; type: cell-based; design: alternatively Euroscreen ES-712-AF; FAST-0161L; host or cells: CHO-K1; conditions: cAMP accumulation, CHO-K1 cells overexpressing hSCTR
Chain of SCTR (P47872 23-440): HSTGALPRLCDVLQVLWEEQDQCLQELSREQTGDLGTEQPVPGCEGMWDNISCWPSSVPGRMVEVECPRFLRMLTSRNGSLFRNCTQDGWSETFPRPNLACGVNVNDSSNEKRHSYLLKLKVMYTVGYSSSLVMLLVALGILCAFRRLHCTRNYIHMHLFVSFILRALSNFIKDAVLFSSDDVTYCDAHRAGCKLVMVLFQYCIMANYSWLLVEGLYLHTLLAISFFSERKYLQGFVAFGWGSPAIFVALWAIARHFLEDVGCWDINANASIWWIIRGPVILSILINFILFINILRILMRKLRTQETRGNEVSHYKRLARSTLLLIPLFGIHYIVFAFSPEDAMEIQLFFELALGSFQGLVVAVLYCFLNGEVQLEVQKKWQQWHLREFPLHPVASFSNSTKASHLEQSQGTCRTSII
Summary of the method: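 Potency reflects cAMP accumulation after 30 min agonist exposure at room temperature in hSCTR-expressing CHO-K1 cells, with 0.5 mM IBMX present to block phosphodiesterase. EC50 was derived by nonlinear regression.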

[3] = read-out: pEC50 hGLPR1 (converted)
[4] = read-out: pEC50 hSCTR (converted)

Q: Which results are given for `CC(C)C[C@H](NC(=O)[C@H](Cc1ccccc1)NC(=O)[C@H](CCCNC(=N)N)NC(=O)[C@H](CCC(N)=O)NC(=O)[C@H](CO)NC(=O)[C@H](C)NC(=O)[C@H](C)NC(=O)[C@H](CCC(=O)O)NC(=O)[C@H](CCC(=O)O)NC(=O)[C@H](CCCCNC(=O)COCCOCCNC(=O)COCCOCCNC(=O)CC[C@H](NC(=O)CCCCCCCCCCCCCCCCCCC(=O)O)C(=O)O)NC(=O)[C@H](CC(C)C)NC(=O)[C@H](Cc1ccccc1)NC(=O)[C@H](CO)NC(=O)[C@@H](NC(=O)[C@H](CC(=O)O)NC(=O)[C@H](CO)NC(=O)[C@@H](NC(=O)[C@H](Cc1ccccc1)NC(=O)[C@@H](NC(=O)CNC(=O)[C@H](CCC(=O)O)NC(=O)C(C)(C)NC(=O)[C@@H](N)Cc1c[nH]cn1)[C@@H](C)O)[C@@H](C)O)C(C)C)C(=O)N[C@@H](CCC(=O)O)C(=O)N[C@@H](Cc1c[nH]cn1)C(=O)N[C@@H](CC(C)C)C(=O)N[C@H](C(N)=O)C(C)C` [compound 38] (H-H[Aib]EGTFTSDVSFLK([AEEA-AEEA-γGlu-C20 diacid])EEAASQRFLEHLV-NH2)?
A: Turbidity (pH 7) [1]: 0.09; Fibril formation [2]: 38424; Selectivity (GLP1R): 35785; EC50 (GLP1R; [3]): 0.0316 nM; EC50 (SCTR; [4]): 1000 nM

Q: What does the source list for `CC(C)C[C@H](NC(=O)[C@H](Cc1ccccc1)NC(=O)[C@H](CCCNC(=N)N)NC(=O)[C@H](CCC(N)=O)NC(=O)[C@H](CO)NC(=O)[C@H](C)NC(=O)[C@H](C)NC(=O)[C@H](Cc1ccccc1)NC(=O)[C@H](CCC(=O)O)NC(=O)[C@H](CCCCNC(=O)COCCOCCNC(=O)COCCOCCNC(=O)CC[C@H](NC(=O)CCCCCCCCCCCCCCCCCCC(=O)O)C(=O)O)NC(=O)[C@H](CC(C)C)NC(=O)[C@H](CCCNC(=N)N)NC(=O)[C@H](CO)NC(=O)[C@@H](NC(=O)[C@H](CC(=O)O)NC(=O)[C@H](CO)NC(=O)[C@@H](NC(=O)[C@H](Cc1ccccc1)NC(=O)[C@@H](NC(=O)CNC(=O)[C@H](CCC(=O)O)NC(=O)C(C)(C)NC(=O)[C@@H](N)Cc1c[nH]cn1)[C@@H](C)O)[C@@H](C)O)C(C)C)C(=O)N[C@@H](CCC(=O)O)C(=O)N[C@@H](Cc1c[nH]cn1)C(=O)N[C@@H](CC(C)C)C(=O)N[C@H](C(N)=O)C(C)C` [compound 52] (H-H[Aib]EGTFTSDVSRLK([AEEA-AEEA-γGlu-C20 diacid])EFAASQRFLEHLV-NH2)?
A: Turbidity (pH 7) [1]: 0.08; Fibril formation [2]: 241858; Selectivity (GLP1R): 3341; EC50 (GLP1R; [3]): 0.126 nM; EC50 (SCTR; [4]): 398 nM

Q: Which results are given for `CC(C)C[C@H](NC(=O)[C@H](Cc1ccccc1)NC(=O)[C@H](CCCNC(=N)N)NC(=O)[C@H](CCC(N)=O)NC(=O)C(C)(C)NC(=O)[C@H](C)NC(=O)[C@H](C)NC(=O)C(C)(C)NC(=O)[C@H](CCC(=O)O)NC(=O)[C@H](CCCCNC(=O)COCCOCCNC(=O)COCCOCCNC(=O)CC[C@H](NC(=O)CCCCCCCCCCCCCCCCCCC(=O)O)C(=O)O)NC(=O)[C@H](CC(C)C)NC(=O)[C@H](CCCNC(=N)N)NC(=O)[C@H](CO)NC(=O)[C@@H](NC(=O)[C@H](CC(=O)O)NC(=O)[C@H](CO)NC(=O)[C@@H](NC(=O)[C@H](Cc1ccccc1)NC(=O)[C@@H](NC(=O)CNC(=O)[C@H](CCC(=O)O)NC(=O)C(C)(C)NC(=O)[C@@H](N)Cc1c[nH]cn1)[C@@H](C)O)[C@@H](C)O)C(C)C)C(=O)N[C@@H](CCC(=O)O)C(=O)N[C@@H](Cc1c[nH]cn1)C(=O)N[C@@H](CC(C)C)C(=O)N[C@H](C(N)=O)C(C)C` [compound 64] (H-H[Aib]EGTFTSDVSRLK([AEEA-AEEA-γGlu-C20 diacid])E[Aib]AA[Aib]QRFLEHLV-NH2)?
A: Turbidity (pH 7) [1]: 0.09; Fibril formation [2]: 14614; Selectivity (GLP1R): 4808; EC50 (GLP1R; [3]): 0.0631 nM; EC50 (SCTR; [4]): 316 nM

Q: What does the source list for `CC(C)C[C@H](NC(=O)[C@H](CCC(=O)O)NC(=O)[C@H](CCCCNC(=O)COCCOCCNC(=O)COCCOCCNC(=O)CC[C@H](NC(=O)CCCCCCCCCCCCCCCCCCC(=O)O)C(=O)O)NC(=O)[C@H](CC(C)C)NC(=O)[C@@H](NC(=O)[C@H](CO)NC(=O)[C@@H](NC(=O)[C@H](CC(=O)O)NC(=O)[C@H](CO)NC(=O)[C@@H](NC(=O)[C@H](Cc1ccccc1)NC(=O)[C@@H](NC(=O)CNC(=O)[C@H](CCC(=O)O)NC(=O)C(C)(C)NC(=O)[C@@H](N)Cc1c[nH]cn1)[C@@H](C)O)[C@@H](C)O)C(C)C)C(C)C)C(=O)N[C@@H](C)C(=O)N[C@@H](C)C(=O)N[C@@H](CCC(N)=O)C(=O)N[C@@H](CCC(N)=O)C(=O)N[C@@H](CCCNC(=N)N)C(=O)N[C@@H](Cc1ccccc1)C(=O)N[C@@H](CC(C)C)C(=O)N[C@@H](CCC(=O)O)C(=O)N[C@@H](Cc1c[nH]cn1)C(=O)N[C@@H](CC(C)C)C(=O)N[C@H](C(N)=O)C(C)C` [compound 33] (H-H[Aib]EGTFTSDVSVLK([AEEA-AEEA-γGlu-C20 diacid])ELAAQQRFLEHLV-NH2)?
A: Turbidity (pH 7) [1]: 0.08; Fibril formation [2]: 45087; Selectivity (GLP1R): 5737; EC50 (GLP1R; [3]): 0.0631 nM; EC50 (SCTR; [4]): 316 nM

Q: With `CC(C)C[C@H](NC(=O)[C@H](Cc1ccccc1)NC(=O)[C@H](CCCNC(=N)N)NC(=O)[C@H](CCC(N)=O)NC(=O)[C@H](CCC(=O)O)NC(=O)[C@H](C)NC(=O)[C@H](C)NC(=O)[C@H](Cc1ccccc1)NC(=O)[C@H](CCC(=O)O)NC(=O)[C@H](CCCCNC(=O)COCCOCCNC(=O)COCCOCCNC(=O)CC[C@H](NC(=O)CCCCCCCCCCCCCCCCCCC(=O)O)C(=O)O)NC(=O)[C@H](CC(C)C)NC(=O)[C@H](CCCNC(=N)N)NC(=O)[C@H](CO)NC(=O)[C@@H](NC(=O)[C@H](CC(=O)O)NC(=O)[C@H](CO)NC(=O)[C@@H](NC(=O)[C@H](Cc1ccccc1)NC(=O)[C@@H](NC(=O)CNC(=O)[C@H](CCC(=O)O)NC(=O)C(C)(C)NC(=O)[C@@H](N)Cc1c[nH]cn1)[C@@H](C)O)[C@@H](C)O)C(C)C)C(=O)N[C@@H](CCC(=O)O)C(=O)N[C@@H](Cc1c[nH]cn1)C(=O)N[C@@H](CC(C)C)C(=O)N[C@H](C(N)=O)C(C)C` [compound 72] (H-H[Aib]EGTFTSDVSRLK([AEEA-AEEA-γGlu-C20 diacid])EFAAEQRFLEHLV-NH2) as the compound, how does the “Turbidity (pH 7)” value [1] read?
A: Its value is 0.08.

Q: And the Fibril formation [2]?
A: The Fibril formation was 96622.

Q: What about the Selectivity (GLP1R) of the same compound?
A: The Selectivity was 9251.

Q: And the EC50 (GLP1R; [3])?
A: The EC50 was 0.1 nM.

Q: What about the EC50 (SCTR; [4]) of the same compound?
A: The EC50 was 1000 nM.

Q: Which results are given for `CC[C@H](C)[C@H](NC(=O)[C@H](Cc1ccccc1)NC(=O)[C@H](CCCNC(=N)N)NC(=O)[C@H](CCC(N)=O)NC(=O)[C@H](CC(C)C)NC(=O)[C@H](C)NC(=O)[C@H](C)NC(=O)CNC(=O)[C@H](CCC(=O)O)NC(=O)[C@H](CC(C)C)NC(=O)[C@H](CC(C)C)NC(=O)C(C)(C)NC(=O)[C@H](CO)NC(=O)[C@@H](NC(=O)[C@H](CC(=O)O)NC(=O)[C@H](CO)NC(=O)[C@@H](NC(=O)[C@H](Cc1ccccc1)NC(=O)[C@@H](NC(=O)CNC(=O)[C@H](CCC(=O)O)NC(=O)C(C)(C)NC(=O)[C@@H](N)Cc1c[nH]cn1)[C@@H](C)O)[C@@H](C)O)C(C)C)C(=O)N[C@@H](CCC(N)=O)C(=O)N[C@@H](Cc1c[nH]c2ccccc12)C(=O)N[C@@H](CC(C)C)C(=O)N[C@H](C(N)=O)C(C)C` [compound 179] (H-H[Aib]EGTFTSDVS[Aib]LLEGAALQRFIQWLV-NH2)?
A: Turbidity (pH 7) [1]: 0.55; Fibril formation [2]: 22028; EC50 (GLP1R; read-out: hGLP1R pEC50 (converted)): 0.0794 nM; SCTR EC50/GLP1R EC50 ratio (GLP1R; selectivity for hGLP1R over hSCTR, cAMP accumulation in CHO-K1 cells): 5995; EC50 (SCTR; read-out: hSCTR pEC50 (converted)): 501 nM

Q: With `CC(C)C[C@H](NC(=O)[C@H](Cc1ccccc1)NC(=O)[C@H](CCCNC(=N)N)NC(=O)[C@H](CCC(N)=O)NC(=O)[C@H](CCC(N)=O)NC(=O)[C@H](C)NC(=O)[C@H](C)NC(=O)[C@H](CCC(=O)O)NC(=O)[C@H](CCC(=O)O)NC(=O)[C@H](CCCCNC(=O)COCCOCCNC(=O)COCCOCCNC(=O)CC[C@H](NC(=O)CCCCCCCCCCCCCCCCCCC(=O)O)C(=O)O)NC(=O)[C@H](CC(C)C)NC(=O)[C@H](Cc1ccc(O)cc1)NC(=O)[C@H](CO)NC(=O)[C@@H](NC(=O)[C@H](CC(=O)O)NC(=O)[C@H](CO)NC(=O)[C@@H](NC(=O)[C@H](Cc1ccccc1)NC(=O)[C@@H](NC(=O)CNC(=O)[C@H](CCC(=O)O)NC(=O)C(C)(C)NC(=O)[C@@H](N)Cc1c[nH]cn1)[C@@H](C)O)[C@@H](C)O)C(C)C)C(=O)N[C@@H](CCC(=O)O)C(=O)N[C@@H](Cc1c[nH]cn1)C(=O)N[C@@H](CC(C)C)C(=O)N[C@H](C(N)=O)C(C)C` [compound 47] (H-H[Aib]EGTFTSDVSYLK([AEEA-AEEA-γGlu-C20 diacid])EEAAQQRFLEHLV-NH2) as the compound, how does the “Turbidity (pH 7)” value [1] read?
A: Its value is 0.08.

Q: What about the Fibril formation [2] of the same compound?
A: Its Fibril formation is 13638.

Q: What about the Selectivity (GLP1R) of the same compound?
A: The Selectivity was 17543.

Q: What about the EC50 (GLP1R; [3]) of the same compound?
A: Its EC50 is 0.0158 nM.

Q: And the EC50 (SCTR; [4])?
A: Its EC50 is 251 nM.
